The record followed here is ChEMBL document CHEMBL3124874, “Development of selective inhibitors for aldehyde dehydrogenases based on substituted indole-2,3-diones” (J Med Chem, 2014).

Test [1] deals with T1, Aldehyde dehydrogenase, dimeric NADP-preferring (Homo sapiens, UniProt P30838).
T1 sequence (P30838 whole entry): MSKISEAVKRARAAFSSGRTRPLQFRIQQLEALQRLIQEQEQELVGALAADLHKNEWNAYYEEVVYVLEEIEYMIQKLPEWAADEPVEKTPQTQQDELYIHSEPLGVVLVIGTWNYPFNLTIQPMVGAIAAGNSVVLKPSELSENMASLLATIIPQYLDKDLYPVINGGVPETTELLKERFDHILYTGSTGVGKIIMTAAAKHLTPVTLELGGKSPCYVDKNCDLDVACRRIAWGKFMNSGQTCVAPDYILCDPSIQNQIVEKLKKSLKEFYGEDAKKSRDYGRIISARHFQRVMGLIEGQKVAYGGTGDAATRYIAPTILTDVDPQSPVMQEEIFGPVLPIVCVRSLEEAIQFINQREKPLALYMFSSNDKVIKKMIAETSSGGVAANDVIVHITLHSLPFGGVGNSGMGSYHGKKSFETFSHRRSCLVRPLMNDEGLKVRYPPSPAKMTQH
In words: Inhibition of full length human ALDH3A1 expressed in Escherichia coli BL21 (DE3) using benzaldehyde as substrate preincubated for 2 mins followed by substrate addition by spectrophotometry in presence of NADP+.

In test [2] the target is T2, Aldehyde dehydrogenase, mitochondrial (Homo sapiens, UniProt P05091).
T2 sequence (P05091 whole entry): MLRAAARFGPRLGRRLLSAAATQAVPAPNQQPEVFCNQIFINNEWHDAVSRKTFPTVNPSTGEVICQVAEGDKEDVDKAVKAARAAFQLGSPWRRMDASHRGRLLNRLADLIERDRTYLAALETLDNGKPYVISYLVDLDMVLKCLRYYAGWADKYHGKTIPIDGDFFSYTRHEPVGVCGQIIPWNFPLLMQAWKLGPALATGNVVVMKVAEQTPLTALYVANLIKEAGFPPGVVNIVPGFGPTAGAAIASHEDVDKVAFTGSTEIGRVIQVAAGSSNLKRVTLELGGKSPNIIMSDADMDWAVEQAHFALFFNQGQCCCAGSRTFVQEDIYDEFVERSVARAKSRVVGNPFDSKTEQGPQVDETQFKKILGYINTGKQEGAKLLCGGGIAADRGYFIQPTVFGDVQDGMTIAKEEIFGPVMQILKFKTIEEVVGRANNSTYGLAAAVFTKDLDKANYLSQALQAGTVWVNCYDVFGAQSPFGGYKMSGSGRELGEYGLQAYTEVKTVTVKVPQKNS
The experiment in a line: Inhibition of human ALDH2 using propionaldehyde as substrate preincubated for 2 mins followed by substrate addition by spectrophotometry in presence of NAD+.

Test [3] has as its target T3, Aldehyde dehydrogenase 1A1 (Homo sapiens, UniProt P00352).
T3 sequence (P00352 whole entry): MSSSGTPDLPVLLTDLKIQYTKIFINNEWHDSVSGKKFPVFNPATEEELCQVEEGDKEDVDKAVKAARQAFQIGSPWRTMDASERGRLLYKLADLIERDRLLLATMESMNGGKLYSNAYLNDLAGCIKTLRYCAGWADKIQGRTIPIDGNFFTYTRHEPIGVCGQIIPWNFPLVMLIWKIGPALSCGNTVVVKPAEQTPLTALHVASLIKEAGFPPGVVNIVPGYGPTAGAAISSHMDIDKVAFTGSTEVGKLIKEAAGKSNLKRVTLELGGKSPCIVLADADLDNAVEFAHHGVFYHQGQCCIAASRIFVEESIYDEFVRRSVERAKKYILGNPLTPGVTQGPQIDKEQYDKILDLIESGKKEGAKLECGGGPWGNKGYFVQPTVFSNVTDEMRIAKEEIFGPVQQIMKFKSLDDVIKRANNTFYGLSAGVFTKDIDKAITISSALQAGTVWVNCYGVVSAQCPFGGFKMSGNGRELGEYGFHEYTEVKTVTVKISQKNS
In words: Inhibition of human ALDH1A1 using propionaldehyde as substrate preincubated for 2 mins followed by substrate addition by spectrophotometry in presence of NAD+.

The target in test [4] is T1, Aldehyde dehydrogenase, dimeric NADP-preferring. In words: Inhibition of human ALDH3A1 using benzaldehyde as substrate by Lineweaver-Burk plot analysis.
Test [5] addresses T2, Aldehyde dehydrogenase, mitochondrial. The experiment in a line: Inhibition of human ALDH2 using propionaldehyde as substrate by Lineweaver-Burk plot analysis.
The target in test [6] is T3, Aldehyde dehydrogenase 1A1. In words: Competitive inhibition of human ALDH1A1 using propionaldehyde as substrate by Lineweaver-Burk plot analysis.
Test [7] has as its target T1, Aldehyde dehydrogenase, dimeric NADP-preferring. In words: Inhibition of human ALDH3A1 by Lineweaver-Burk plot analysis in presence of NADP+.
The target in test [8] is T2, Aldehyde dehydrogenase, mitochondrial. The experiment in a line: Inhibition of human ALDH2 by Lineweaver-Burk plot analysis in presence of NAD+.
For test [9], the target named is T3, Aldehyde dehydrogenase 1A1. The experiment in a line: Noncompetitive/mixed type inhibition of human ALDH1A1 by Lineweaver-Burk plot analysis in presence of NAD+.

One may read the IC50 as the concentration at which inhibition is half-maximal. The term Ki denotes the equilibrium dissociation constant of an inhibitor or competing ligand from its target.

On to `O=C1C(=O)N(CCCc2ccccc2)c2ccccc21`, for which the IC50 in [1] turned out to be 460 nM; in test [2], 1200 nM; in test [3], 50 nM.
Turning to `O=C1C(=O)N(C/C=C/c2ccccc2)c2ccccc21`, the IC50 in [1] was 310 nM; in test [2], more than 100000 nM; in test [3] it was 70 nM.
The corresponding values for `O=C1C(=O)N(CN2CCOCC2)c2ccccc21` are 1300 nM, more than 100000 nM and 20000 nM.
In the case of `O=C1C(=O)N(C/C=C/c2ccccc2)c2ccc(Cl)cc21`, the concentration for half-maximal inhibition (IC50) in test [3] worked out at 570 nM.
Regarding `O=C1C(=O)N(CN2CCN(Cc3ccccc3)CC2)c2ccccc21`, the values for the IC50 in test [1], in test [2] and in [3] were 930 nM, more than 100000 nM and 50000 nM, respectively.
Turning to `O=C1C(=O)N(CCc2ccccc2)c2ccccc21`, the IC50 in test [2] worked out at 3500 nM; in test [3], 70 nM.
The corresponding values for `O=C1C(=O)N(CCc2ccccc2)c2ccc(Cl)cc21` are 410 nM and 90 nM.
Turning to `O=C1C(=O)N(CCc2ccccc2)c2ccc(Br)cc21`, the IC50 in test [1] turned out to be 18000 nM; in [2], 50 nM; in test [3], 2000 nM.
In the case of `Cc1cc(Br)c2c(c1)C(=O)C(=O)N2`, the Ki was found to be 380 nM in [4]; 1000 nM in [5]; 900 nM in test [6]; 500 nM in test [7]; 2200 nM in test [8]; 290 nM in test [9]. Moreover, the IC50 was 360 nM in [1], 2400 nM in [2] and 720 nM in [3].
In the case of `CCCCCN1C(=O)C(=O)c2ccccc21`, the IC50 in [1] stood at 420 nM; in [2], 1700 nM; in [3], 40 nM.
In the case of `O=C1C(=O)N(Cc2ccccc2)c2ccc(Br)cc21`, the IC50 in [2] is 2100 nM; in test [3] it was 580 nM.
For `O=C1C(=O)N(CN2CCN(Cc3ccc4c(c3)OCO4)CC2)c2ccccc21`, the half-maximal inhibitory concentration (IC50) is 300 nM in test [1], more than 100000 nM in test [2] and 12000 nM in [3].
On to `O=C1C(=O)N(CN2CCN(Cc3ccc4c(c3)OCO4)CC2)c2ccc(Br)cc21`, for which the half-inhibitory concentration (IC50) was 73000 nM in test [1], more than 100000 nM in [2] and 15000 nM in [3].
As to `O=C1C(=O)N(CN2CCN(Cc3ccc(F)cc3)CC2)c2ccccc21`, the IC50 in test [1] was 1500 nM; in test [3], more than 100000 nM.
The corresponding values for `O=C1C(=O)N(CN2CCN(Cc3cccc(F)c3)CC2)c2ccccc21` are 1900 nM and 35000 nM.
On the same counts, the results for `O=C1C(=O)N(CN2CCN(Cc3cccc(Cl)c3)CC2)c2ccccc21` are 1700 nM and more than 100000 nM.
The corresponding values for `COc1cccc(CN2CCN(CN3C(=O)C(=O)c4ccccc43)CC2)c1` are 1200 nM and 34000 nM.
In the case of `O=C1C(=O)N(CN2CCN(Cc3ccccc3F)CC2)c2ccccc21`, the IC50 was determined as 1800 nM in test [1] and 4000 nM in test [3].
Regarding `O=C1C(=O)N(Cc2ccccc2)c2ccc(Cl)cc21`, the IC50 in test [2] amounted to 2100 nM; in [3], 60 nM.
`CN1CCN(CN2C(=O)C(=O)c3ccccc32)CC1`: the IC50 in test [1] was 1600 nM; in test [2], more than 100000 nM; in test [3], 35000 nM.
With `O=C1C(=O)N(CN2CCN(CN3C(=O)C(=O)c4ccccc43)C2)c2ccccc21`, the figures for the IC50 in [1] and in test [3] were 1600 nM and 19000 nM, respectively.
